Laboratory results: US8530404B2, “Compounds and methods for treatment of cancer” (FibroGen, Inc., priority 2005, dated 2013)
Read-outs that look alike come from different tables or passages of the source.

Assays:
human A549 lung tumors = experiment: Subcutaneously implanted human A549 lung tumor mouse xenograft (Example 2); format: in vivo; conditions: for tumor weight at necropsy, Mean / A549 mean tumor volume: 20 mg/kg PO; for increase in mean tumor volume: within 1 week (7 days) from start, 20 mg/kg, vehicle control 45%
From the text: Immuno-compromised athymic CD-1 nu/nu nude mice males (5-6 weeks old) were used in this study (Charles River Laboratories, Wilmington, Mass.). Animals were maintained in a HEPA-filtered environment during the experimental period. Cages, food, and bedding were autoclaved. Animal diets were obtained from Harlan Teklad (Madison, Wis.). […] A stock tumor was established by subcutaneously injecting a cell suspension into nude mice. The resulting tumor was maintained in nude mice subcutaneously as tumor stock prior to use. Tumor implantation was performed when the stock tumors were in log phase of growth. Before implantation, tumor tissue was harvested from stock mice and placed in RPMI-1640 medium. Necrotic tissues were dissected away and viable tissues were cut into 1-2 mm^2 pieces. Tumor fragments were then transplanted subcutaneously to the right flank of the nude mice. Treatment (administration of compounds of the present invention) was started when the inoculated tumors reached approximately 100 mm^3, and continued for four weeks. […] Sizes of the primary tumors were measured through the skin with calipers once per week. […] Body weight of the mice in each group was also measured once per week during the experimental period. All animals were sacrificed following thirty-two days of treatment. Primary tumors were excised and weighed on an electronic balance. Blood samples were taken during terminal sacrifice and placed in microhematocrit tubes containing EDTA. Complete Blood Counts (CBC) and reticulocyte analysis were performed with the Cell Dyn 3700 analyzer (Abbott Diagnostics), as described by the manufacturer. Procedures were carried out as described above for Example 1, with the following changes. The human H-460 lung cancer cell line was replaced by the human A549 lung cancer cell line. Xenografted H460 tumors are characterized by a high growth rate, while xenografted A549 tumors progress substantially more slowly. A549 has been characterized extensively. […] Hanze et al., (2003) Biochem Biophys Res Commun 312:571-577; Wedge et al., (2002) Cancer Res 62:4645-4655; and Abdollahi et al., (2003) Cancer Res 63:8890-8898.) Compound B treatment groups (6 mg/kg, 20 mg/kg) were replaced by compound D treatment groups (6 mg/kg, 20 mg/kg). Other experimental parameters were identical to those described in Example 1 above.

BNIP3 gene expression [1] = experiment: BNIP3 gene expression in MCF7 cells; format: cell-based; conditions: Homo sapiens, MCF7, read-out: fold-increase in BNIP3 mRNA expression
Method: To identify compounds useful in the methods of the present invention, the following studies were performed. The effect of compounds of the present invention on expression of various genes associated with anti-tumor activity (e.g., genes having anti-proliferative activity, genes having pro-apoptotic activity, genes having anti-tumor activity, etc.). In these experiments, the effect of compounds on BNIP3, BNIP3L, NDRG1, CDKN1C, and REDD1/RTP801 gene expression in various types of cultured tumor cells line was examined, including Hep3B cells (human hepatocellular carcinoma), Kelly neuroblastoma cells, and MCF7 cells (human breast cancer)
The effects of various compounds of the present invention on the expression of genes associated with tumor growth and progression were examined in MCF7 breast cancer cells as follows. In some experiments, MCF7 (ATCC) cells were plated in 96-well tissue culture dishes (approximately 20,000 cells per well) and cultured in DMEM media supplemented with 10% serum. The following day, the cells were washed and the media was replaced with DMEM containing 0.5% FBS. Various compounds of the present invention were added to the cultured cells to a final concentration of 20 μM, and the cells cultured for an additional 20-24 hours. DMSO (0.5%) was added to control cell cultures. RNA was isolated as described above. Changes in gene expression levels are presented as fold change compared to that of control (0.5% DMSO-treated) cultures.
In other experiments, MCF7 cells were plated in 96-well tissue culture dishes as described above. After 24 hours, the cells were washed and the media was replaced with DMEM containing 0.5% FBS. Various compounds of the present invention were added to the cultured cells to a final concentration of 20 μM. DMSO (0.5%) was added to control cell cultures. After 24 hours, changes in gene expression of BNIP3 and 18S RNA were determined directly using one-step quantitative multiplex RT-PCR reactions according to the manufacturer's instructions (QuantiTect Multiplex RT-PCR Kit, Qiagen, catalog no. 204643). Changes in gene expression levels are presented as fold change compared to that of control (0.5% DMSO-treated) cultures.

BNIP3 gene expression [2] = experiment: In vivo BNIP3 gene expression in Swiss Webster mice (quantitative PCR); conditions: Mus musculus, iv, 4 h, single 60 mg/kg i.v. dose, four hours after administration, normalized to 18S
Method: (§1) The effects of various compounds of the present invention on the expression of genes associated with tumor growth and progression (e.g., expression of genes associated with anti-proliferative effects) were examined in vivo as follows. In these studies, male Swiss Webster mice (25 g) were administered a single intravenous (i.v.) dose of various compounds (60 mg/kg) of the present invention via the tail vein. Four hours after administration of compound, the kidneys and liver were removed and preserved in RNAlater (Ambion). RNA isolation and cDNA synthesis was carried out as follows. Murine kidney tissue was added to TRIzol (Invitrogen) and homogenized using a 5-mm stainless steel bead for 4 minutes at 25 Hz in a Mixer Mill 300 (Qiagen). Homogenates were extracted with chloroform according to the manufacturer's instructions and aqueous supernatants were isolated. The aqueous supernatants were combined with equal volumes of 70% ethanol and then loaded onto RNeasy Mini spin columns (Qiagen). RNA was isolated according to the manufacturer's instructions.
(§2) Synthesis of cDNA from the isolated total RNA was carried out using Omniscript reverse transcriptase (Qiagen) and random primers according to the manufacturer's instructions. Measurement of gene expression levels in compound-treated animals and in vehicle-treated control animals was performed by quantitative PCR using TaqMan Universal PCR Master Mix (Applied Biosystems) and TaqMan Assay-on-Demand assays (Applied Biosystems) in a Prism 7000 system instrument (Applied Biosystems), according to manufacturer's instructions. The assays used were as follows: 18S ribosomal RNA, Hs99999901_s1; BNIP3, Mm00833810_g1; BNIP3L, Mm00786306_s1; NDRG1, Mm00440447_m1. Each PCR amplification reaction included a standard curve and a water blank. Data for gene expression levels for BNIP3, BNIP3L, and NDRG1 were normalized to that of 18S ribosomal RNA within each sample. Data is presented as fold change in specific mRNA levels relative to that of non-treated control animals.

BNIP3L gene expression = experiment: In vivo BNIP3L gene expression in Swiss Webster mice (quantitative PCR); conditions: Mus musculus, iv, 4 h, single 60 mg/kg i.v. dose, four hours after administration, normalized to 18S
Method: as §1, §2

[3] = read-out: fold change in BNIP3 mRNA level, kidney
[4] = read-out: fold change in BNIP3L mRNA level, kidney
[5] = read-out: fold change in BNIP3 mRNA level, liver
[6] = read-out: fold change in BNIP3L mRNA level, liver

Row | Compound | tumor weight at necropsy, Mean (human A549 lung tumors) [g] | A549 mean tumor volume (human A549 lung tumors; week 0) [mm^3] | A549 mean tumor volume (human A549 lung tumors; week 1) [mm^3] | A549 mean tumor volume (human A549 lung tumors; week 2) [mm^3] | A549 mean tumor volume (human A549 lung tumors; week 3) [mm^3] | A549 mean tumor volume (human A549 lung tumors; week 4) [mm^3] | fold induction at 20 µM (BNIP3 gene expression [1]) | fold induction at 60 mg/kg (BNIP3 gene expression [2]; [3]) | fold induction at 60 mg/kg (BNIP3L gene expression; [4]) | increase in mean tumor volume (human A549 lung tumors) [%] | fold induction at 60 mg/kg (BNIP3 gene expression [2]; [5]) | fold induction at 60 mg/kg (BNIP3L gene expression; [6])
1 | O=C(O)CNC(=O)c1nc(Cl)c2ccccc2c1O [Compound A, [(1-Chloro-4-hydroxy-isoquinoline-3-carbonyl)-amino]-acetic acid] | 0.76 | 100 | 138 | 173 | 241 | 328 | – | – | – | – | – | –
2 | C[C@H](NC(=O)c1ncc2cc(Oc3ccccc3)ccc2c1O)C(=O)O [Compound B, (S)-2-[(4-Hydroxy-7-phenoxy-isoquinoline-3-carbonyl)-amino]-propionic acid] | – | – | – | – | – | – | 4.5 | 2.1 | 1.2 | – | – | –
3 | COc1ccc(Oc2ccc3c(O)c(C(=O)NCC(=O)O)ncc3c2)cc1 [Compound C, {[4-Hydroxy-7-(4-methoxy-phenoxy)-isoquinoline-3-carbonyl]-amino}-acetic acid] | 0.50 | 102 | 124 | 152 | 180 | 208 | 5 | 1.5 | 0.9 | 22 | 3.5 | 2.6
4 | Cc1nc(C(=O)NCC(=O)O)c(O)c2ccc(Oc3ccccc3)cc12 [Compound D, [(4-Hydroxy-1-methyl-7-phenoxy-isoquinoline-3-carbonyl)-amino]-acetic acid] | 0.58 | 106 | 126 | 148 | 193 | 227 | – | 5.8 | 5 | 20 | 1.5 | 1.2
5 | O=C(O)CNC(=O)c1ncc2cc(Oc3ccc(F)cc3)ccc2c1O [Compound E, {[7-(4-fluoro-phenoxy)-4-hydroxy-isoquinoline-3-carbonyl]-amino}-acetic acid] | – | – | – | – | – | – | 5.3 | 2.1 | 0.8 | – | 1.8 | 1.7
